# Values of other authors as cited in US20080103122A1, “PHARMACEUTICAL COMBINATIONS FOR LIPID MANAGEMENT AND IN THE TREATMENT OF ATHEROSCLEROSIS AND HEPATIC STEATOSIS” (Schering Corporation, priority 2006, published 2008).
# Tested on: atherosclerotic plaques
# Conditions: mice; Zaiss et al., Circulation 100 (18 Suppl. I): 255 (1999)
smiles,measurement,value
"Cc1cc(C)c2c3ccccc3n(Cc3ccc([C@@H](C(=O)N[C@@H](CO)c4ccccc4)C4CCCC4)cc3)c2n1 [implitiapide, 2,2-(S)-cyclopentyl-2-{[4-(2,4-dimethyl-alpha-carbolin-9-yl)methyl]phenyl}acetic acid-(R)-phenyl-glycinol-amide]",formation of atherosclerotic plaques,prevents the formation of atherosclerotic plaques
